For 23 compounds, activity coefficient results are on record in the NIST ThermoML archive (doi:10.1021/acs.jced.5b00980).

This series in a line: activity coefficient (dimensionless); of the first substance listed, at infinite dilution; xn = mol fraction of the nth substance listed. The conditions noted are these: 100 kPa, Liquid, Chromatography, x1 = 0.

Numbers after ± are expanded uncertainties.

For `C=Cc1ccccc1` [styrene] + CCCC[P+](CC)(CCCC)CCCC.CCOP(=O)([O-])OCC, the activity coefficient runs as follows: (328.15 K) 0.971 ± 0.061; (338.15 K) 0.975 ± 0.061; (348.15 K) 0.98 ± 0.061; (358.15 K) 0.983 ± 0.062; (368.15 K) 0.987 ± 0.062.
Consider `CCCCCCCC` [octane] + CCCC[P+](CC)(CCCC)CCCC.CCOP(=O)([O-])OCC, for which the activity coefficient runs as follows: (328.15 K) 4.87 ± 0.33; (338.15 K) 4.74 ± 0.32; (348.15 K) 4.6 ± 0.31; (358.15 K) 4.47 ± 0.3; (368.15 K) 4.37 ± 0.3.
Regarding `CC1CCCCC1` [methylcyclohexane] + CCCC[P+](CC)(CCCC)CCCC.CCOP(=O)([O-])OCC, the activity coefficient runs as follows: (328.15 K) 2.62 ± 0.18; (338.15 K) 2.57 ± 0.17; (348.15 K) 2.52 ± 0.17; (358.15 K) 2.48 ± 0.17; (368.15 K) 2.44 ± 0.17.
As for `CC(C)CC(C)(C)C` [2,2,4-trimethylpentane] + CCCC[P+](CC)(CCCC)CCCC.CCOP(=O)([O-])OCC, the activity coefficient is 4.38 ± 0.3 (328.15 K); 4.25 ± 0.29 (338.15 K); 4.15 ± 0.28 (348.15 K); 4.05 ± 0.28 (358.15 K); 3.97 ± 0.27 (368.15 K).
Regarding `CCCC(=O)CC` [3-hexanone] + CCCC[P+](CC)(CCCC)CCCC.CCOP(=O)([O-])OCC, the activity coefficient runs as follows: (328.15 K) 1.23 ± 0.08; (338.15 K) 1.21 ± 0.08; (348.15 K) 1.21 ± 0.08; (358.15 K) 1.2 ± 0.08; (368.15 K) 1.2 ± 0.08.
Regarding `C1=CCCCC1` [cyclohexene] + CCCC[P+](CC)(CCCC)CCCC.CCOP(=O)([O-])OCC, the activity coefficient reads like this: (328.15 K) 1.72 ± 0.12; (338.15 K) 1.69 ± 0.11; (348.15 K) 1.67 ± 0.11; (358.15 K) 1.65 ± 0.11; (368.15 K) 1.63 ± 0.11.
For the compound `CO` [methanol] + CCCC[P+](CC)(CCCC)CCCC.CCOP(=O)([O-])OCC, the activity coefficient is, setting by setting: (338.15 K) 0.022; (348.15 K) 0.025; (358.15 K) 0.028; (368.15 K) 0.03.
As for `C=CCCCCCC` [oct-1-ene] + CCCC[P+](CC)(CCCC)CCCC.CCOP(=O)([O-])OCC, the activity coefficient (328.15 K) was 3.68 ± 0.25; the activity coefficient (338.15 K) amounted to 3.6 ± 0.25; the activity coefficient (348.15 K) is 3.52 ± 0.24; the activity coefficient (358.15 K) amounted to 3.45 ± 0.23; the activity coefficient (368.15 K) was determined as 3.39 ± 0.23.
Take `CCC(C)(C)C` [2,2-dimethylbutane] + CCCC[P+](CC)(CCCC)CCCC.CCOP(=O)([O-])OCC: the activity coefficient worked out at 3.34 ± 0.23 (328.15 K); 3.27 ± 0.22 (338.15 K); 3.2 ± 0.22 (348.15 K); 3.14 ± 0.21 (358.15 K); 3.08 ± 0.21 (368.15 K).
In the case of `CC(C)=O` [acetone] + CCCC[P+](CC)(CCCC)CCCC.CCOP(=O)([O-])OCC, the activity coefficient is, setting by setting: (328.15 K) 0.835 ± 0.054; (338.15 K) 0.827 ± 0.053; (348.15 K) 0.822 ± 0.053; (358.15 K) 0.814 ± 0.053; (368.15 K) 0.809 ± 0.052.
On to `CCCCC(C)=O` [2-hexanone] + CCCC[P+](CC)(CCCC)CCCC.CCOP(=O)([O-])OCC, for which the activity coefficient runs as follows: (328.15 K) 1.15 ± 0.07; (338.15 K) 1.15 ± 0.07; (348.15 K) 1.15 ± 0.07; (358.15 K) 1.15 ± 0.07; (368.15 K) 1.14 ± 0.07.
Take `C#CCCCCC` [1-heptyne] + CCCC[P+](CC)(CCCC)CCCC.CCOP(=O)([O-])OCC: the activity coefficient was 1.01 ± 0.06 (328.15 K); 1.05 ± 0.07 (338.15 K); 1.09 ± 0.07 (348.15 K); 1.13 ± 0.07 (358.15 K); 1.17 ± 0.07 (368.15 K).
On to `C1CCCCCC1` [cycloheptane] + CCCC[P+](CC)(CCCC)CCCC.CCOP(=O)([O-])OCC, for which the activity coefficient runs as follows: (328.15 K) 2.48 ± 0.17; (338.15 K) 2.42 ± 0.16; (348.15 K) 2.37 ± 0.16; (358.15 K) 2.32 ± 0.16; (368.15 K) 2.27 ± 0.15.
In the case of `C=CCCC` [1-pentene] + CCCC[P+](CC)(CCCC)CCCC.CCOP(=O)([O-])OCC, the activity coefficient came out at 2.18 ± 0.15 (328.15 K); 2.15 ± 0.15 (338.15 K); 2.13 ± 0.14 (348.15 K); 2.11 ± 0.14 (358.15 K); 2.09 ± 0.14 (368.15 K).
`C1CCCC1` [cyclopentane] + CCCC[P+](CC)(CCCC)CCCC.CCOP(=O)([O-])OCC: the activity coefficient reads like this: (328.15 K) 1.83 ± 0.12; (338.15 K) 1.8 ± 0.12; (348.15 K) 1.77 ± 0.12; (358.15 K) 1.74 ± 0.12; (368.15 K) 1.71 ± 0.11.
For the compound `CC(C)OC(C)C` [diisopropyl ether] + CCCC[P+](CC)(CCCC)CCCC.CCOP(=O)([O-])OCC, the activity coefficient turned out to be 2.82 ± 0.19 (328.15 K); 2.75 ± 0.19 (338.15 K); 2.69 ± 0.18 (348.15 K); 2.65 ± 0.18 (358.15 K); 2.59 ± 0.18 (368.15 K).
Regarding `C=CCCCC` [hex-1-ene] + CCCC[P+](CC)(CCCC)CCCC.CCOP(=O)([O-])OCC, the activity coefficient was found to be 2.59 ± 0.18 (328.15 K); 2.54 ± 0.17 (338.15 K); 2.49 ± 0.17 (348.15 K); 2.44 ± 0.17 (358.15 K); 2.4 ± 0.16 (368.15 K).
Consider `C#CCCC` [1-pentyne] + CCCC[P+](CC)(CCCC)CCCC.CCOP(=O)([O-])OCC, for which the activity coefficient turned out to be 0.725 ± 0.048 (328.15 K); 0.762 ± 0.05 (338.15 K); 0.797 ± 0.052 (348.15 K); 0.833 ± 0.054 (358.15 K); 0.866 ± 0.055 (368.15 K).
The matching figures for `C1CCCCCCC1` [cyclooctane] + CCCC[P+](CC)(CCCC)CCCC.CCOP(=O)([O-])OCC: 2.82 ± 0.19, 2.74 ± 0.19, 2.69 ± 0.18, 2.63 ± 0.18 and 2.57 ± 0.17.
On to `CCCCCC` [hexane] + CCCC[P+](CC)(CCCC)CCCC.CCOP(=O)([O-])OCC, for which the activity coefficient (328.15 K) was 3.4 ± 0.23; the activity coefficient (338.15 K) was 3.33 ± 0.23; the activity coefficient (348.15 K) turned out to be 3.26 ± 0.22; the activity coefficient (358.15 K) amounted to 3.21 ± 0.22; the activity coefficient (368.15 K) was found to be 3.15 ± 0.21.
`C1CCCCC1` [cyclohexane] + CCCC[P+](CC)(CCCC)CCCC.CCOP(=O)([O-])OCC: the activity coefficient (328.15 K) is 2.17 ± 0.15; the activity coefficient (338.15 K) came out at 2.13 ± 0.14; the activity coefficient (348.15 K) worked out at 2.09 ± 0.14; the activity coefficient (358.15 K) turned out to be 2.05 ± 0.14; the activity coefficient (368.15 K) turned out to be 2.01 ± 0.14.
In the case of `CC#N` [acetonitrile] + CCCC[P+](CC)(CCCC)CCCC.CCOP(=O)([O-])OCC, the activity coefficient (328.15 K) was 0.464 ± 0.036; the activity coefficient (338.15 K) was 0.465 ± 0.036; the activity coefficient (348.15 K) is 0.467 ± 0.036; the activity coefficient (358.15 K) was found to be 0.468 ± 0.037; the activity coefficient (368.15 K) was found to be 0.469 ± 0.037.
In the case of `CCC[N+](=O)[O-]` [1-nitropropane] + CCCC[P+](CC)(CCCC)CCCC.CCOP(=O)([O-])OCC, the activity coefficient runs as follows: (328.15 K) 0.499 ± 0.038; (338.15 K) 0.507 ± 0.038; (348.15 K) 0.515 ± 0.038; (358.15 K) 0.523 ± 0.039; (368.15 K) 0.53 ± 0.039.
